Molecules are shown by their SMILES. pIC50: −log10 of the molar value.

Series [1] relates to HDACs (HeLa cell nuclear extracts). Nature of the series: HDAC enzymatic activity, Biomol Color de Lys system. Type of series: biochemical. The method in brief: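 HeLa nuclear extract as HDAC source with Color de Lys substrate in 50 mM Tris/Cl pH 8.0, 137 mM NaCl, 2.7 mM KCl, 1 mM MgCl2. Serially diluted compounds reacted 1 h at 25 °C, then developer added; fluorescence (Ex 350–380/Em 440–460) fitted sigmoidally for IC50.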

Turning to `CCNc1ccc(-c2nc(N3CCOCC3)c3sc(CN(C)c4ncc(C(=O)NO)cn4)cc3n2)cc1` [Compound 153, 2-(((2-(4-(ethylamino)phenyl)-4-morpholinothieno[3,2-d]pyrimidin-6-yl)methyl)(methyl)amino)-N-hydroxypyrimidine-5-carboxamide], the melting point was 185 to 187 °C. The pIC50 in series [1] is more than 7.00.
The matching figures for `CNc1ccc(-c2nc(N3CCOCC3)c3sc(C(C)(C)Nc4ncc(C(=O)NO)cn4)cc3n2)cn1` [Compound 240, N-Hydroxy-2-(2-(2-(6-(methylamino)pyridin-3-yl)-4-morpholinothieno[3,2-d]pyrimidin-6-yl)propan-2-ylamino)pyrimidine-5-carboxamide]: 200 to 205 °C and more than 7.00.
On the same counts, the results for `CN(CCCC(=O)NO)Cc1cc2nc(-c3cccc4[nH]ncc34)nc(N3CCOCC3)c2s1` [Compound 101, 4-(((2-(1H-indazol-4-yl)-4-morpholinothieno[3,2-d]pyrimidin-6-yl)methyl)(methyl)amino)-N-hydroxybutanamide] are 115 to 118 °C and less than 5.00.
On the same counts, the results for `CN(Cc1cc2nc(-c3cncnc3)nc(N3CCOCC3)c2s1)c1ncc(C(=O)NO)cn1` [Compound 119, N-hydroxy-2-(methyl((4-morpholino-2-(pyrimidin-5-yl)thieno[3,2-d]pyrimidin-6-yl)methyl)amino)pyrimidine-5-carboxamide] are 159 to 160 °C and more than 7.00.
For `CCN(CC)c1ccc(-c2nc(N3CCOCC3)c3sc(CN(C)c4ncc(C(=O)NO)cn4)cc3n2)cc1` [Compound 154, 2-(((2-(4-(Diethylamino)phenyl)-4-morpholinothieno[3,2-d]pyrimidin-6-yl)methyl)(methyl)amino)-N-hydroxypyrimidine-5-carboxamide], the melting point fell in the range of 192 to 196 °C. Also, in series [1], the pIC50 was more than 7.00.
The matching figures for `COc1ncc(-c2nc(N3CCOCC3)c3sc(C(C)(C)Nc4ncc(C(=O)NO)cn4)cc3n2)cn1` [Compound 263, N-Hydroxy-2-(2-(2-(2-methoxypyrimidin-5-yl)-4-morpholinothieno[3,2-d]pyrimidin-6-yl)propan-2-ylamino)pyrimidine-5-carboxamide]: 202 to 207 °C and more than 7.00.
The matching figures for `O=C(NO)c1ccc(NCc2cc3nc(-c4cccc5[nH]ncc45)nc(N4CCOCC4)c3s2)cc1` [Compound 78, 4-((2-(1H-indazol-4-yl)-4-morpholinothieno[3,2-d]pyrimidin-6-yl)methylamino)-N-hydroxybenzamide]: 180 to 183 °C and more than 7.00.
On the same counts, the results for `CN(Cc1cc2nc(-c3ccc(N)c(C#N)c3)nc(N3CCOCC3)c2s1)c1ncc(C(=O)NO)cn1` [Compound 280, 2-(((2-(4-Amino-3-cyanophenyl)-4-morpholinothieno[3,2-d]pyrimidin-6-yl)methyl)(methyl)amino)-N-hydroxypyrimidine-5-carboxamide] are 237 to 240 °C and more than 7.00.
The compound `COc1cccc(-c2nc(N3CCOCC3)c3sc(CN(C)c4ncc(C(=O)NO)cn4)cc3n2)c1` [Compound 130, N-hydroxy-2-(((2-(3-methoxyphenyl)-4-morpholinothieno[3,2-d]pyrimidin-6-yl)methyl)(methyl)amino)pyrimidine-5-carboxamide] displayed a melting point of 179 to 181 °C. The pIC50 in series [1] was more than 7.00.
As for `COCc1cccc(-c2nc(N3CCOCC3)c3sc(CN(C)c4ncc(C(=O)NO)cn4)cc3n2)c1` [Compound 139, N-hydroxy-2-(((2-(3-(methoxymethyl)phenyl)-4-morpholinothieno[3,2-d]pyrimidin-6-yl)methyl)(methyl)amino)pyrimidine-5-carboxamide], the melting point was 178 to 181 °C. In addition, the pIC50 in series [1] was more than 7.00.
On the same counts, the results for `O=C(CCCCCN1CCN(Cc2cc3nc(-c4cccc5[nH]ncc45)nc(N4CCOCC4)c3s2)CC1)NO` [Compound 12, 6-(4-((2-(1H-indazol-4-yl)-4-morpholinothieno[3,2-d]pyrimidin-6-yl)methyl)piperazin-1-yl)-N-hydroxyhexanamide] are 123 to 124 °C and 6.00 to 7.00.
With `COc1ccc(-c2nc(N3CCOCC3)c3sc(S(=O)(=O)Nc4ncc(C(=O)NO)cn4)cc3n2)cn1` [Compound 252, 2-[2-(6-Methoxy-pyridin-3-yl)-4-morpholin-4-yl-thieno[3,2-d]pyrimidine-6-sulfonylamino]-pyrimidine-5-carboxylic acid hydroxyamide], the melting point was in the range of 259 to 265 °C. Also, in series [1], the pIC50 was more than 7.00.
On the same counts, the results for `CS(=O)(=O)N1CCN(Cc2cc3nc(-c4cccc5nn(CCCCC(=O)NO)cc45)nc(N4CCOCC4)c3s2)CC1` [Compound 7, N-hydroxy-5-(4-(6-((4-(methylsulfonyl)piperazin-1-yl)methyl)-4-morpholinothieno[3,2-d]pyrimidin-2-yl)-2H-indazol-2-yl)pentanamide] are 146 to 169 °C and 6.00 to 7.00.
In the case of `CNc1ccc(-c2nc(N3CCOCC3)c3sc(C(C)N(C)c4ncc(C(=O)NO)cn4)cc3n2)cn1` (stereo not shown) [Compound 237, N-Hydroxy-2-(methyl(1-(2-(6-(methylamino)pyridin-3-yl)-4-morpholinothieno[3,2-d]pyrimidin-6-yl)ethyl)amino)pyrimidine-5-carboxamide], the melting point fell in the range of 270 to 275 °C. Besides, the pIC50 in series [1] was more than 7.00.
On the same counts, the results for `Nc1ccc(-c2nc(N3CCOCC3)c3sc(S(=O)(=O)Nc4ncc(C(=O)NO)cn4)cc3n2)cc1` [Compound 271, 2-[2-(4-Amino-phenyl)-4-morpholin-4-yl-thieno[3,2-d]pyrimidine-6-sulfonylamino]-pyrimidine-5-carboxylic acid hydroxyamide] are 197 to 205 °C and more than 7.00.
On the same counts, the results for `C[C@@H](O)c1cccc(-c2nc(N3CCOCC3)c3sc(CN(C)c4ncc(C(=O)NO)cn4)cc3n2)c1` [Compound 297, (R)—N-Hydroxy-2-(((2-(3-(1-hydroxyethyl)phenyl)-4-morpholinothieno[3,2-d]pyrimidin-6-yl)methyl)(methyl)amino)pyrimidine-5-carboxamide] are 169 to 173 °C and more than 7.00.
In turn, `CC(=O)Nc1ccc(-c2nc(N3CCOCC3)c3sc(CN(C)c4ncc(C(=O)NO)cn4)cc3n2)cn1` [Compound 112, 2-(((2-(6-acetamidopyridin-3-yl)-4-morpholinothieno[3,2-d]pyrimidin-6-yl)methyl)(methyl)amino)-N-hydroxypyrimidine-5-carboxamide] had a melting point of 197 to 201 °C. Moreover, the pIC50 in series [1] was more than 7.00.
As to `CS(=O)(=O)N1CCN(Cc2cc3nc(-c4ccc(OCCCCC(=O)NO)cc4)nc(N4CCOCC4)c3s2)CC1` [Compound 319, N-Hydroxy-5-(4-(6-((4-(methylsulfonyl)piperazin-1-yl)methyl)-4-morpholinothieno[3,2-d]pyrimidin-2-yl)phenoxy)pentanamide], the melting point was in the range of 140 to 144 °C. Moreover, in series [1], the pIC50 is 6.00 to 7.00.
On the same counts, the results for `Cc1ccc(-c2nc(N3CCOCC3)c3sc(CN(C)c4ncc(C(=O)NO)cn4)cc3n2)cc1` [Compound 201, N-hydroxy-2-(methyl((4-morpholino-2-p-tolylthieno[3,2-d]pyrimidin-6-yl)methyl)amino)pyrimidine-5-carboxamide] are 170 to 172 °C and more than 7.00.
With `CNc1ccc(-c2nc(N3CCOCC3)c3sc(S(=O)(=O)NCC4CCN(c5ncc(C(=O)NO)cn5)CC4)cc3n2)cn1` [Compound 310, N-Hydroxy-2-(4-((2-(6-(methylamino)pyridin-3-yl)-4-morpholinothieno[3,2-d]pyrimidine-6-sulfonamido)methyl)piperidin-1-yl)pyrimidine-5-carboxamide], the melting point fell in the range of 190 to 197 °C. This compound had a pIC50 in series [1] of more than 7.00.
On the same counts, the results for `CNc1ncc(-c2nc(N3CCOCC3)c3sc(NCCCCC(=O)NO)cc3n2)cn1` [Compound 227, N-Hydroxy-5-(2-(2-(methylamino)pyrimidin-5-yl)-4-morpholinothieno[3,2-d]pyrimidin-6-ylamino)pentanamide] are 206 to 210 °C and more than 7.00.
Take `CN(Cc1cc2nc(-c3ccc4[nH]c(C(F)(F)F)nc4c3)nc(N3CCOCC3)c2s1)c1ncc(C(=O)NO)cn1` [Compound 318]: the melting point is more than 300 °C. Further, the pIC50 in series [1] is more than 7.00.
On the same counts, the results for `CS(=O)(=O)N1CCN(Cc2cc3nc(-c4cccc5nn(CCCCCCC(=O)NO)cc45)nc(N4CCOCC4)c3s2)CC1` [Compound 9, N-hydroxy-7-(4-(6-((4-(methylsulfonyl)piperazin-1-yl)methyl)-4-morpholinothieno[3,2-d]pyrimidin-2-yl)-2H-indazol-2-yl)heptanamide] are 123 to 126 °C and more than 7.00.
The matching figures for `CN(Cc1cc2nc(-c3ccc(N4CCCC4)cc3)nc(N3CCOCC3)c2s1)c1ncc(C(=O)NO)cn1` [Compound 155, N-hydroxy-2-(methyl((4-morpholino-2-(4-(pyrrolidin-1-yl)phenyl)thieno[3,2-d]pyrimidin-6-yl)methyl)amino)pyrimidine-5-carboxamide]: 187 to 192 °C and more than 7.00.
On the same counts, the results for `Nc1ncc(-c2nc(N3CCOCC3)c3sc(NCCCCC(=O)NO)cc3n2)cn1` [Compound 226] are 175 to 180 °C and more than 7.00.
`CN(Cc1cc2nc(-c3ccc(N)c(Cl)c3)nc(N3CCOCC3)c2s1)c1ncc(C(=O)NO)cn1` [Compound 275, 2-(((2-(4-Amino-3-chlorophenyl)-4-morpholinothieno[3,2-d]pyrimidin-6-yl)methyl)(methyl)amino)-N-hydroxypyrimidine-5-carboxamide] displayed a melting point of 241 to 246 °C. Moreover, the pIC50 in series [1] was more than 7.00.

In general, pIC50 refers to the IC50 on a negative log10 scale, so that one unit is a factor of ten. Lower therefore signals a large IC50. As a reminder, the melting point is the temperature, or range, at which the solid turns liquid.

The record behind these values is patent publication US8906909B2 (Curis, Inc., priority 2009, dated 2014).
